Reference: ChEMBL document CHEMBL2046399, “Effect of C-ring modifications on the cytotoxicity of spirostan saponins and related glycosides” (Bioorg Med Chem, 2012)
The source made the active and inactive calls. No cut-off for these calls is given here.

Assays:
HL-60 [1] = assay: Cytotoxicity against human HL60 cells after 72 hrs by MTT assay; type: functional, cell-based; details: HL-60, 72 h
PBMC = assay: Cytotoxicity against human PBMC at 3 to 60 uM after 24 hrs by MTT assay; type: cell-based
HL-60 [2] = assay: Cytotoxicity against human HL60 cells at 3 to 60 uM after 24 hrs by MTT assay; type: functional, cell-based
[3] = Cytotoxicity against human PBMC assessed as cell viability at 30 uM after 24 hrs by MTT assay relative to control; type: cell-based; details: PBMC (peripheral blood mononuclear cells), read-out: Activity
HL-60 [4] = assay: Cytotoxicity against human HL60 cells assessed as cell viability at 30 uM after 24 hrs by MTT assay relative to control; type: functional; details: HL-60, 24 h, read-out: Activity
[5] = Cytotoxicity against human PBMC assessed as cell viability at 10 uM after 24 hrs by MTT assay relative to control; type: cell-based; details: PBMC (peripheral blood mononuclear cells), read-out: Activity
HL-60 [6] = assay: Cytotoxicity against human HL60 cells assessed as cell viability at 10 uM after 24 hrs by MTT assay relative to control; type: functional; details: HL-60, 24 h, read-out: Activity

C[C@@H]1CC[C@@]2(OC1)O[C@H]1C[C@@H]([C@@H]3CC[C@H]4C[C@@H](O[C@@H]5O[C@H](CO)[C@@H](O[C@@H]6O[C@@H](C)[C@H](O)[C@@H](O)[C@H]6O)[C@H](O)[C@H]5O[C@@H]5O[C@@H](C)[C@H](O)[C@@H](O)[C@H]5O)CC[C@]4(C)[C@H]3CC(=O)O)[C@](C)(O)[C@H]1[C@@H]2C
IC50 (HL-60 [1]): > 100 µM

CO[C@H]1C[C@H]2[C@@H](CC[C@H]3C[C@@H](O[C@@H]4O[C@H](COC(=O)C(C)(C)C)[C@@H](O)[C@H](OC(=O)C(C)(C)C)[C@H]4O)CC[C@@]32C)[C@@H]2C[C@@H]3O[C@]4(CC[C@@H](C)CO4)[C@@H](C)[C@@H]3[C@@]12C
IC50 (HL-60 [1]): 21.5 µM

CO[C@H]1C[C@H]2[C@@H](CC[C@H]3C[C@@H](O[C@@H]4O[C@H](CO)[C@@H](O[C@@H]5O[C@@H](C)[C@H](O)[C@@H](O)[C@H]5O)[C@H](O)[C@H]4O[C@@H]4O[C@@H](C)[C@H](O)[C@@H](O)[C@H]4O)CC[C@@]32C)[C@@H]2C[C@@H]3O[C@]4(CC[C@@H](C)CO4)[C@@H](C)[C@@H]3[C@@]12C
IC50 (HL-60 [1]): 31.5 µM

C[C@@H]1CC[C@@]2(OC1)O[C@H]1C[C@H]3[C@@H]4CC[C@H]5C[C@@H](O[C@@H]6O[C@H](COC(=O)C(C)(C)C)[C@@H](O)[C@H](OC(=O)C(C)(C)C)[C@H]6O)CC[C@]5(C)[C@H]4CC(=O)O[C@]3(C)[C@H]1[C@@H]2C
IC50 (HL-60 [1]): 9.9 µM
Activity (PBMC): Toxic
Activity (HL-60 [2]): Active

C=C1C[C@H]2[C@@H](CC[C@H]3C[C@@H](O[C@@H]4O[C@H](CO)[C@@H](O[C@@H]5O[C@@H](C)[C@H](O)[C@@H](O)[C@H]5O)[C@H](O)[C@H]4O[C@@H]4O[C@@H](C)[C@H](O)[C@@H](O)[C@H]4O)CC[C@@]32C)[C@@H]2C[C@@H]3O[C@]4(CC[C@@H](C)CO4)[C@@H](C)[C@@H]3[C@@]12C
IC50 (HL-60 [1]): 9.7 µM
viability at 24 h, 30 µM [3]: 64.2%
viability at 30 µM (HL-60 [4]): 23%

C[C@@H]1CC[C@@]2(OC1)O[C@H]1C[C@H]3[C@@H]4CC[C@H]5C[C@@H](O[C@@H]6O[C@H](CO)[C@@H](O[C@@H]7O[C@@H](C)[C@H](O)[C@@H](O)[C@H]7O)[C@H](O)[C@H]6O[C@@H]6O[C@@H](C)[C@H](O)[C@@H](O)[C@H]6O)CC[C@]5(C)[C@H]4CC[C@]3(C)[C@H]1[C@@H]2C
IC50 (HL-60 [1]): 2.6 µM
viability at 24 h, 10 µM [5]: 45%
viability at 10 µM (HL-60 [6]): 17%

C[C@@H]1CC[C@@]2(OC1)O[C@H]1C[C@H]3[C@@H]4CC[C@H]5C[C@@H](O[C@@H]6O[C@H](COC(=O)C(C)(C)C)[C@@H](O)[C@H](OC(=O)C(C)(C)C)[C@H]6O)CC[C@]5(C)C4=CC(=O)[C@]3(C)[C@H]1[C@@H]2C
IC50 (HL-60 [1]): 5.9 µM

C[C@@H]1CC[C@@]2(OC1)O[C@H]1C[C@H]3[C@@H]4CC[C@H]5C[C@@H](O[C@@H]6O[C@H](COC(=O)C(C)(C)C)[C@@H](O)[C@H](OC(=O)C(C)(C)C)[C@H]6O)CC[C@]5(C)[C@H]4CC[C@]3(C)[C@H]1[C@@H]2C
IC50 (HL-60 [1]): 8.9 µM
Activity (PBMC): Toxic
Activity (HL-60 [2]): Active

CO[C@@H]1C[C@H]2[C@@H](CC[C@H]3C[C@@H](O[C@@H]4O[C@H](COC(=O)C(C)(C)C)[C@@H](O)[C@H](OC(=O)C(C)(C)C)[C@H]4O)CC[C@@]32C)[C@@H]2C[C@@H]3O[C@]4(CC[C@@H](C)CO4)[C@@H](C)[C@@H]3[C@@]12C
IC50 (HL-60 [1]): 19.2 µM
Activity (PBMC): Toxic
Activity (HL-60 [2]): Active

C[C@@H]1CC[C@@]2(OC1)O[C@H]1C[C@H]3[C@@H]4CC[C@H]5C[C@@H](O[C@@H]6O[C@H](CO)[C@@H](O[C@@H]7O[C@@H](C)[C@H](O)[C@@H](O)[C@H]7O)[C@H](O)[C@H]6O[C@@H]6O[C@@H](C)[C@H](O)[C@@H](O)[C@H]6O)CC[C@]5(C)C4=CC(=O)[C@]3(C)[C@H]1[C@@H]2C
IC50 (HL-60 [1]): 30.4 µM

CO[C@@H]1C[C@H]2[C@@H](CC[C@H]3C[C@@H](O[C@@H]4O[C@H](CO)[C@@H](O[C@@H]5O[C@@H](C)[C@H](O)[C@@H](O)[C@H]5O)[C@H](O)[C@H]4O[C@@H]4O[C@@H](C)[C@H](O)[C@@H](O)[C@H]4O)CC[C@@]32C)[C@@H]2C[C@@H]3O[C@]4(CC[C@@H](C)CO4)[C@@H](C)[C@@H]3[C@@]12C
IC50 (HL-60 [1]): 21.8 µM

C=C1C[C@H]2[C@@H](CC[C@H]3C[C@@H](O[C@@H]4O[C@H](COC(=O)C(C)(C)C)[C@@H](O)[C@H](OC(=O)C(C)(C)C)[C@H]4O)CC[C@@]32C)[C@@H]2C[C@@H]3O[C@]4(CC[C@@H](C)CO4)[C@@H](C)[C@@H]3[C@@]12C
IC50 (HL-60 [1]): 15.7 µM
Activity (PBMC): Toxic
Activity (HL-60 [2]): Active
